Values quoted from earlier work in PMC9775177, “NLRP3-Inflammasome Inhibition with IZD334 Does Not Reduce Cardiac Damage in a Pig Model of Myocardial Infarction” (Biomedicines, 2022).

Legend:
large animal model of MI = tested on: large animal model of MI; set-up: method as in PMID 27432019; settings: cited from earlier work
IR injury in mice = tested on: IR injury in mice; set-up: method as in PMID 30747785; settings: cited from earlier work
[1] = large animal model, 7 days following MI

Row | Compound | IS (infarct size) (large animal model of MI; [1]) | LV function (large animal model of MI; [1]) | circulating markers of inflammation (large animal model of MI; pigs treated with MCC950) | infarct development (IR injury in mice) | left ventricular dysfunction (IR injury in mice)
1 | CC(C)(O)c1coc(S(=O)(=O)NC(=O)Nc2c3c(cc4c2CCC4)CCC3)c1 [MCC950] | dose-dependently reduced IS | improvement in LV function | only modestly lower | – | –
2 | CS(=O)(=O)CCC#N [OLT1177] | – | – | – | limited infarct development | prevented left ventricular dysfunction
